Experimental data reported in patent US8029764B2, “Methods for detection of colorectal cancer” (The Johns Hopkins University, priority 2001, dated 2011).

System: colorectal tissue transcripts
Assay: SAGE of normal, adenoma and cancer colorectal tissue (transcript tag counts)
Parameters: species or system human
Settings: for AD1 (SAGE tag count): SAGE library AD1; for AD2 (SAGE tag count): SAGE library AD2; for CA1 (SAGE tag count): SAGE library CA1; for CA2 (SAGE tag count): SAGE library CA2; for NC1 (SAGE tag count): SAGE library NC1; for NC2 (SAGE tag count): SAGE library NC2
Method in brief: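 Tag counts reflect transcript abundance, each mRNA represented by a 15-base tag near its 3′ end. Excluding MHC tags, linkers and duplicate ditags, libraries were compared statistically: two each of normal epithelium, FAP-derived adenomas (>70% neoplastic) and carcinomas.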

GCCGACCAGG (chemistry not fully specified)
AD1 (SAGE tag count): 15 | AD2 (SAGE tag count): 8 | CA1 (SAGE tag count): 19 | CA2 (SAGE tag count): 9 | NC1 (SAGE tag count): 46 | NC2 (SAGE tag count): 47

GCCGGGTGGG (chemistry not fully specified)
AD1 (SAGE tag count): 18 | AD2 (SAGE tag count): 24 | CA1 (SAGE tag count): 68 | CA2 (SAGE tag count): 67 | NC1 (SAGE tag count): 207 | NC2 (SAGE tag count): 149

GCCGTGGAGA (chemistry not fully specified)
AD1 (SAGE tag count): 4 | AD2 (SAGE tag count): 11 | CA1 (SAGE tag count): 7 | CA2 (SAGE tag count): 7 | NC1 (SAGE tag count): 32 | NC2 (SAGE tag count): 23

GCCTGGCCAT (chemistry not fully specified)
AD1 (SAGE tag count): 4 | AD2 (SAGE tag count): 6 | CA1 (SAGE tag count): 10 | CA2 (SAGE tag count): 14 | NC1 (SAGE tag count): 26 | NC2 (SAGE tag count): 34

GCGAAACCCT (chemistry not fully specified)
AD1 (SAGE tag count): 123 | AD2 (SAGE tag count): 43 | CA1 (SAGE tag count): 64 | CA2 (SAGE tag count): 98 | NC1 (SAGE tag count): 167 | NC2 (SAGE tag count): 565

GCGAAACTCG (chemistry not fully specified)
AD1 (SAGE tag count): 1 | AD2 (SAGE tag count): 0 | CA1 (SAGE tag count): 0 | CA2 (SAGE tag count): 0 | NC1 (SAGE tag count): 5 | NC2 (SAGE tag count): 9

GCGCAGAGGT (chemistry not fully specified)
AD1 (SAGE tag count): 1 | AD2 (SAGE tag count): 0 | CA1 (SAGE tag count): 0 | CA2 (SAGE tag count): 1 | NC1 (SAGE tag count): 2 | NC2 (SAGE tag count): 16

GCTCTTCCCC (chemistry not fully specified; the letters are possibly those of the target site)
AD1 (SAGE tag count): 1 | AD2 (SAGE tag count): 2 | CA1 (SAGE tag count): 2 | CA2 (SAGE tag count): 0 | NC1 (SAGE tag count): 9 | NC2 (SAGE tag count): 21

GCTGCCCTTG (chemistry not fully specified)
AD1 (SAGE tag count): 13 | AD2 (SAGE tag count): 6 | CA1 (SAGE tag count): 6 | CA2 (SAGE tag count): 18 | NC1 (SAGE tag count): 44 | NC2 (SAGE tag count): 6

GCTGGCACAT (chemistry not fully specified)
AD1 (SAGE tag count): 1 | AD2 (SAGE tag count): 0 | CA1 (SAGE tag count): 6 | CA2 (SAGE tag count): 0 | NC1 (SAGE tag count): 15 | NC2 (SAGE tag count): 14

GCTGGCCCCG (chemistry not fully specified)
AD1 (SAGE tag count): 0 | AD2 (SAGE tag count): 0 | CA1 (SAGE tag count): 0 | CA2 (SAGE tag count): 1 | NC1 (SAGE tag count): 5 | NC2 (SAGE tag count): 11

GCTGTGCCTG (chemistry not fully specified)
AD1 (SAGE tag count): 2 | AD2 (SAGE tag count): 4 | CA1 (SAGE tag count): 11 | CA2 (SAGE tag count): 8 | NC1 (SAGE tag count): 36 | NC2 (SAGE tag count): 42

GCTTGGGGAT (chemistry not fully specified)
AD1 (SAGE tag count): 2 | AD2 (SAGE tag count): 0 | CA1 (SAGE tag count): 0 | CA2 (SAGE tag count): 0 | NC1 (SAGE tag count): 11 | NC2 (SAGE tag count): 8

GGAACAGGGG (chemistry not fully specified)
AD1 (SAGE tag count): 1 | AD2 (SAGE tag count): 0 | CA1 (SAGE tag count): 0 | CA2 (SAGE tag count): 2 | NC1 (SAGE tag count): 1 | NC2 (SAGE tag count): 13

GGAACTGTGA (chemistry not fully specified)
AD1 (SAGE tag count): 10 | AD2 (SAGE tag count): 18 | CA1 (SAGE tag count): 10 | CA2 (SAGE tag count): 2 | NC1 (SAGE tag count): 90 | NC2 (SAGE tag count): 84

GGAAGAGCAC (chemistry not fully specified)
AD1 (SAGE tag count): 1 | AD2 (SAGE tag count): 1 | CA1 (SAGE tag count): 2 | CA2 (SAGE tag count): 5 | NC1 (SAGE tag count): 21 | NC2 (SAGE tag count): 11

GGAGGCCGAG (chemistry not fully specified)
AD1 (SAGE tag count): 5 | AD2 (SAGE tag count): 0 | CA1 (SAGE tag count): 2 | CA2 (SAGE tag count): 5 | NC1 (SAGE tag count): 13 | NC2 (SAGE tag count): 9

GGAGGCGCTC (chemistry not fully specified)
AD1 (SAGE tag count): 1 | AD2 (SAGE tag count): 1 | CA1 (SAGE tag count): 0 | CA2 (SAGE tag count): 1 | NC1 (SAGE tag count): 5 | NC2 (SAGE tag count): 11

GGATGGCTTA (chemistry not fully specified)
AD1 (SAGE tag count): 2 | AD2 (SAGE tag count): 1 | CA1 (SAGE tag count): 1 | CA2 (SAGE tag count): 1 | NC1 (SAGE tag count): 25 | NC2 (SAGE tag count): 5

GGCACCGTGC (chemistry not fully specified)
AD1 (SAGE tag count): 8 | AD2 (SAGE tag count): 10 | CA1 (SAGE tag count): 8 | CA2 (SAGE tag count): 4 | NC1 (SAGE tag count): 22 | NC2 (SAGE tag count): 44

GGCCCTGCAG (chemistry not fully specified)
AD1 (SAGE tag count): 1 | AD2 (SAGE tag count): 0 | CA1 (SAGE tag count): 5 | CA2 (SAGE tag count): 1 | NC1 (SAGE tag count): 14 | NC2 (SAGE tag count): 7

GGCTCGGGAT (chemistry not fully specified)
AD1 (SAGE tag count): 2 | AD2 (SAGE tag count): 4 | CA1 (SAGE tag count): 3 | CA2 (SAGE tag count): 5 | NC1 (SAGE tag count): 15 | NC2 (SAGE tag count): 11

GGCTGCCTGC (chemistry not fully specified)
AD1 (SAGE tag count): 4 | AD2 (SAGE tag count): 3 | CA1 (SAGE tag count): 5 | CA2 (SAGE tag count): 2 | NC1 (SAGE tag count): 13 | NC2 (SAGE tag count): 11

GGCTGGGCCT (chemistry not fully specified)
AD1 (SAGE tag count): 14 | AD2 (SAGE tag count): 5 | CA1 (SAGE tag count): 10 | CA2 (SAGE tag count): 8 | NC1 (SAGE tag count): 46 | NC2 (SAGE tag count): 25

GGGAAGCAGA (chemistry not fully specified)
AD1 (SAGE tag count): 18 | AD2 (SAGE tag count): 4 | CA1 (SAGE tag count): 8 | CA2 (SAGE tag count): 9 | NC1 (SAGE tag count): 32 | NC2 (SAGE tag count): 17

GGGACGAGTG (chemistry not fully specified)
AD1 (SAGE tag count): 1 | AD2 (SAGE tag count): 3 | CA1 (SAGE tag count): 6 | CA2 (SAGE tag count): 1 | NC1 (SAGE tag count): 20 | NC2 (SAGE tag count): 6

GGGCGCTGTG (chemistry not fully specified)
AD1 (SAGE tag count): 3 | AD2 (SAGE tag count): 6 | CA1 (SAGE tag count): 4 | CA2 (SAGE tag count): 5 | NC1 (SAGE tag count): 11 | NC2 (SAGE tag count): 27

GGGGCAGGGC (chemistry not fully specified)
AD1 (SAGE tag count): 27 | AD2 (SAGE tag count): 10 | CA1 (SAGE tag count): 15 | CA2 (SAGE tag count): 31 | NC1 (SAGE tag count): 48 | NC2 (SAGE tag count): 64
